Data as given in patent US20250368633A1, “AZEPINE FUSED RING COMPOUND AS RIPK1 INHIBITOR AND USE THEREOF” (ARTIVILA BIOPHARMA, priority 2022, published 2025).

Assays:
[1] = system: U937 cells; test: Inhibition rate of compound (1 μM) on necroptosis of U937 cells (TSZ-induced, CellTiter-Glo); assay type: cell-based; conditions: TSZ (hTNF-α, SM-164, Z-VAD-FMK) 20 hours
Description: (§1) The biological activity of RIPK1 inhibitors was further evaluated in the inhibition of necroptosis in U937 cells. U937 cell line was purchased from Huatuo Biotechnology and stored in liquid nitrogen. U937 cells were revived before the experiment and cultured in RPMI-1640 medium (supplemented with 10% fetal bovine serum, 100 U/mL penicillin and 100 μg/mL streptomycin) at 37° C., 5% CO2. The activity was further evaluated by the cellular ATP level detected by the Promega CellTiter-Glo 2.0 Assay cell viability assay kit (Catalog No.: G9242).
The experimental method was briefly described as below. U937 cells in the logarithmic growth phase were collected by centrifugation. Cells were diluted at the density of 5×10^5 cells/mL with RPMI 1640 medium (supplemented with 10% fetal bovine serum, 100 U/mL penicillin and 100 μg/mL streptomycin). The cell suspension was added to a white sterile 384-well cell culture plate at 15 μL/well. The test compound was dissolved in DMSO to prepare a 10 mM stock solution and diluted to 10 μM with culture medium. At the same time, a control with the same DMSO volume was set up. Two replicates were added for each concentration. The diluted compound was added to the 384-well cell culture plate containing cells at 2.5 µL/well and incubated at 37° C., 5% CO2 for 15 minutes. Z-VAD-FMK (Biyuntian, catalog number: C1202-5 mg) was dissolved in DMSO to prepare a 20 mM stock solution. SM-164 (Biyuntian, catalog number: SC0114-10 mM) was dissolved in DMSO to prepare a 10 mM stock solution and diluted to 0.1 mM. hTNF-α (Sino Biological Inc., catalog number: 10602-HNAE) was dissolved in sterile water to 10 μg/mL. RPMI 1640 medium (supplemented with 10% fetal bovine serum, 100 U/mL penicillin and 100 μg/mL streptomycin) was used to prepare the TSZ mixture, containing 133.3 μM Z-VAD-FMK, 33.3 ng/ml hTNF-α and 0.3 μM SM-164. After 15 minutes' coculture of compounds and cells, 7.5 μL of TSZ mixture was added to each well, mixed evenly, and cultured at 37° C., 5% CO2 for 20 hours. After 20 hours, the culture plate was removed and placed at room temperature for 30 minutes. 10 μL of CellTiter-Glo reagent pre-equilibrated at room temperature was added to each well and incubated for 10 minutes from light. The chemiluminescence was read by a microplate reader. The inhibition rate was calculated as Inh %=(1−(no TSZ-TSZ & compound)/(no TSZ-TSZ))×100.

[2] = system: U937 cells; test: EC50 of necroptosis inhibition in U937 cells (TSZ-induced, CellTiter-Glo); assay type: cell-based; conditions: Homo sapiens, U-937; TSZ (hTNF-α, SM-164, Z-VAD-FMK) 20 hours; 10 concentration points; read-out: EC50 intervals of necroptosis inhibition in U937 cells
Description: as §1
The experimental method was briefly described as below. U937 cells in the logarithmic growth phase were collected by centrifugation. Cells were diluted to the cell density of 5×10^5 cells/mL with RPMI 1640 medium (supplemented with 10% fetal bovine serum, 100 U/mL penicillin and 100 μg/mL streptomycin). Cell suspension was added to a white sterile 384-well cell culture plate at 15 μL/well. The test compound was dissolved in DMSO to prepare a 10 mM stock solution. The compound was serially diluted with culture medium at a ratio of 1:3, for a total of 10 concentration points. A control with the same DMSO volume was set, with two replicates for each concentration. The diluted compound was added to the 384-well cell culture plate containing cells at 2.5 μL/well and incubated at 37° C., 5% CO2 for 15 minutes. Z-VAD-FMK (Biyuntian, catalog number: C1202-5 mg) was dissolved in DMSO to prepare a 20 mM stock solution. SM-164 (Biyuntian, catalog number: SC0114-10 mM) was dissolved in DMSO to prepare a 10 mM stock solution and diluted to 0.1 mM. hTNF-α (Sino Biological Inc., catalog number: 10602-HNAE) was dissolved in sterile water to 10 μg/mL. RPMI 1640 medium (supplemented with 10% fetal bovine serum, 100 U/mL penicillin and 100 μg/mL streptomycin) was used to prepare the TSZ mixture, containing 133.3 μM Z-VAD-FMK, 33.3 ng/ml hTNF-α and 0.3 μM SM-164. After 15 minutes' coculture of compounds and cells, 7.5 μL of TSZ mixture was added to each well, mixed evenly, and cultured at 37° C., 5% CO2 for 20 hours. After 20 hours, the culture plate was removed and placed at room temperature for 30 minutes. Then, 10 μL of CellTiter-Glo reagent pre-equilibrated at room temperature was added to each well and incubated. After 10 minutes' incubation at room temperature in the dark, the chemiluminescence were measured using a microplate reader. The inhibition rate was calculated as Inh %=(1−(no TSZ-TSZ & compound)/(no TSZ-TSZ))×100. The EC50 was obtained by fitting the nonlinear regression curve log [inhibitor] vs. response−variable slope (four parameters) in GraphPad Prism.

[3] = molecular target: T1, RIPK1 kinase (Homo sapiens, UniProt Q13546); test: In vitro RIPK1 kinase activity assay (ADP-Glo), inhibition by compounds at 1 μM; assay type: biochemical; conditions: compound 1 μM; ATP 10 μM; MBP substrate 100 μg/mL; read-out: RIPK1 kinase activity inhibition rate range
T1 construct: purchased Promega VA7593
T1 sequence (Q13546 1-671): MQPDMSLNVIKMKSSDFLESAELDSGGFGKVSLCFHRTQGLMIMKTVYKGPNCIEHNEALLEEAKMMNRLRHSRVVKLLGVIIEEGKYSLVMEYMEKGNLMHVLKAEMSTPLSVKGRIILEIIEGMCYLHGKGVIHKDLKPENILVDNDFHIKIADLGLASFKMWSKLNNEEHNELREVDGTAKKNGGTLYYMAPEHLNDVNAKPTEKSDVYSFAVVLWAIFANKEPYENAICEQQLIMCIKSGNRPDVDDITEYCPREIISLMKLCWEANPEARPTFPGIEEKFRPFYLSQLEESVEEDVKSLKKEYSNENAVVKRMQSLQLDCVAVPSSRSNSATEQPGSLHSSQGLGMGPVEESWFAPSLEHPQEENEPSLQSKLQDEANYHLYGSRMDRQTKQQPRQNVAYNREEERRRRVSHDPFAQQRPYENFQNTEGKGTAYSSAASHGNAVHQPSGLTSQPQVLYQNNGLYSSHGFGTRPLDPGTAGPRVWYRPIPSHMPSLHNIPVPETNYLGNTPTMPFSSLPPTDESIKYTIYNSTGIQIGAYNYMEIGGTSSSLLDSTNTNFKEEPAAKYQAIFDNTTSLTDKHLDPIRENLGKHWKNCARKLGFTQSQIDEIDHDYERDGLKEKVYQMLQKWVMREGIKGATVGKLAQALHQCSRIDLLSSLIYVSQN
Description: RIPK1 kinase activity was assayed using the ADP-Glo assay and RIPK1 kinase reaction system (Promega, catalog number: VA7593). The RIPK1 kinase activity assay was performed according to the Promega kit manual.
The experimental method was briefly described as below. The concentration of RIPK1 kinase in the RIPK1 kinase reaction system was determined by kinase titration and S/B10. Compounds were diluted with 1× kinase buffer D (1% DMSO), and 1 μL of 100 μM compound DMSO stock solution was added to 19 μL 1× kinase buffer D. RIPK1 kinase was diluted with 1× kinase buffer D. 2.5×ATP/substrate was diluted with 1× kinase buffer D. The final concentration of ATP in the kinase reaction system was 10 μM, and the final concentration of MBP substrate was 100 μg/mL. 1 μL of diluted compound and 2 μL of diluted RIPK1 kinase were mixed, incubated at room temperature for 15 minutes, 2 μL of 2.5×ATP/substrate was added, mixed, and incubated at room temperature for 1 hour. 5 μL of ADP-Glo reagent was added to each well and incubated at room temperature for 1 hour. 10 μL of ADP detection reagent was added to each well and incubated at room temperature for another 0.5-1 hour. The chemiluminescent signal was read by a microplate reader and the inhibition rate of kinase activity was calculated.

| SMILES | Inhibition rate range of compounds (1 μM) on U937 cell necroptosis [1] | EC50 [2] [nM] | inhibition at 1 µM [3] [%] |
| --- | --- | --- | --- |
| CN1C(=O)[C@@H](NC(=O)C(=O)NCCc2ccccc2)COc2cc(C#CC3CC3)ccc21 [Example 4, (S)—N^1-(8-(cyclopropylethynyl)-5-methyl-4-oxo-2,3,4,5-tetrahydrobenzo[b][1,4]oxazepin-3-yl)-N^2-phenethyloxalamide] | B (B: 50-89%) | 500 to 2000 |  |
| CN1C(=O)C(NC(=O)C(=O)NCCc2ccccc2)CCc2cc(C#CC3CC3)ccc21 (centres unmarked) [Example 64, N^1-(7-(cyclopropylethynyl)-1-methyl-2-oxo-2,3,4,5-tetrahydro-1H-benzo[b]azepin-3-yl)-N^2-phenethyloxalamide] | B (B: 50-89%) | 500 to 2000 |  |
| CN1C(=O)C(NC(=O)C(=O)NCCc2ccccc2)CCc2ccccc21 (centres unmarked) [Example 67, N^1-(1-methyl-2-oxo-2,3,4,5-tetrahydro-1H-benzo[b]azepin-3-yl)-N^2-phenethyloxalamide] | A (A: ≥90%) | 100 to 500 |  |
| CN1C(=O)[C@@H](NC(=O)C(=O)NCCc2ccccc2)COc2ccc(C#CC3CNC3)cc21 [Example 90, (S)—N^1-(7-(azetidin-3-ylethynyl)-5-methyl-4-oxo-2,3,4,5-tetrahydrobenzo[b][1,4]oxazepin-3-yl)-N^2-phenethyloxalamide] | B (B: 50-89%) | 100 to 500 |  |
| CN1C(=O)[C@@H](NC(=O)C(=O)NCCc2cccc(Cl)c2)COc2ccccc21 [Example 101, (S)—N^1-(3-chlorophenethyl)-N^2-(5-methyl-4-oxo-2,3,4,5-tetrahydrobenzo[b][1,4]oxazepin-3-yl)oxalamide] |  |  | 25 to 49 |
| CN1C(=O)[C@@H](NC(=O)C(=O)NCCc2cccc(F)c2)COc2ccc(C#CC3(O)CCCCC3)cc21 [Example 112, (S)—N^1-(3-fluorophenethyl)-N^2-(7-((1-hydroxycyclohexyl)ethynyl)-5-methyl-4-oxo-2,3,4,5-tetrahydrobenzo[b][1,4]oxazepin-3-yl)oxalamide] | A (A: ≥90%) | < 100 |  |
| C[C@H](NC(=O)C(=O)N[C@H]1COc2ccc(C#CCN3CC[C@@H](O)C3)cc2N(C)C1=O)c1ccccc1 [Example 127, N^1-((S)-7-(3-((R)-3-hydroxypyrrolidin-1-yl)prop-1-yn-1-yl)-5-methyl-4-oxo-2,3,4,5-tetrahydrobenzo[b][1,4]oxazepin-3-yl)-N^2-((S)-1-phenylethyl)oxalamide] | B (B: 50-89%) | 100 to 500 |  |
| C[C@H](NC(=O)C(=O)N[C@H]1COc2ccc(C#CCN3CC[C@H](O)C3)cc2N(C)C1=O)c1ccccc1 [Example 129, N^1-((S)-7-(3-((S)-3-hydroxypyrrolidin-1-yl)prop-1-yn-1-yl)-5-methyl-4-oxo-2,3,4,5-tetrahydrobenzo[b][1,4]oxazepin-3-yl)-N^2-((S)-1-phenylethyl)oxalamide] | B (B: 50-89%) | 100 to 500 |  |
| C[C@H](NC(=O)C(=O)N[C@H]1COc2ccc(C#CC3(O)COC3)cc2N(C)C1=O)c1ccccc1 [Example 133, N^1-((S)-7-((3-hydroxyoxetan-3-yl)ethynyl)-5-methyl-4-oxo-2,3,4,5-tetrahydrobenzo[b][1,4]oxazepin-3-yl)-N^2-((S)-1-phenylethyl)oxalamide] | B (B: 50-89%) | 100 to 500 |  |
| C[C@H](NC(=O)C(=O)N[C@H]1COc2ccc(C#CCN3CCOCC3)cc2N(C)C1=O)c1ccccc1 [Example 141, N^1-((S)-5-methyl-7-(3-morpholinoprop-1-yn-1-yl)-4-oxo-2,3,4,5-tetrahydrobenzo[b][1,4]oxazepin-3-yl)-N^2-((S)-1-phenylethyl)oxalamide] | A (A: ≥90%) | < 100 |  |
| C[C@@H](NC(=O)C(=O)N[C@H]1COc2ccc(C#CC3CN(CCO)C3)cc2N(C)C1=O)c1ccccc1 [Example 150, N^1-((S)-7-((1-(2-hydroxyethyl)azetidin-3-yl)ethynyl)-5-methyl-4-oxo-2,3,4,5-tetrahydrobenzo[b][1,4]oxazepin-3-yl)-N^2-((R)-1-phenylethyl)oxalamide] | A (A: ≥90%) | < 100 |  |
| C[C@@H](NC(=O)C(=O)N[C@H]1CNc2ccc(C#CCN3CCOCC3)cc2N(C)C1=O)c1ccccc1 [Example 165, N^1-((S)-1-methyl-8-(3-morpholinoprop-1-yn-1-yl)-2-oxo-2,3,4,5-tetrahydro-1H-benzo[b][1,4]diazepin-3-yl)-N^2-((R)-1-phenylethyl)oxalamide] | A (A: ≥90%) | < 100 |  |
